Results taken from PubChem BioAssay AID2060511 (Molecular Pharmacology Branch, DTP, NCI, 2025).
Where “and” joins values, the source holds several entries; their conditions need not be identical. Identical values can stand only once.

System: 422866-222-R5-J1-PDC spheroids with HUVEC/MSC, viability
Test: Anticancer human tumor 422866-222-R5-J1-PDC patient-derived pancreatic adenocarcinoma cell line growth inhibition [GQUAD]
Settings: for viability, T/C: stronger effect = lower value
Description: DNA G-quadruplex Stabilizer Agents in Combinations in Complex Spheroids
A high-throughput screen of multi-cell type tumor spheroids was designed to identify active combinations of DNA G-quadruplex stabilizer agents and targeted small molecules. Complex spheroids include a stromal component modeled by human endothelial cells (HUVEC) and fibroblasts modeled by human mesenchymal stem cells (MSCs). The concentration ranges selected for each drug and investigational agent were based upon clinically achievable concentrations if the clinical Cmax of the agent was known.
Compounds. The drugs and investigational agents: pidnarulex (CX-5461; NSC782164), APTO-253 (NSC789042), BRACO-19 (NSC847499), peposertib (NSC802822), ceralasertib (NSC780249), elimusertib (NSC800525), camonsertib (NSC841442), AZD-1390 (NSC803789), olaparib (NSC753686), talazoparib (NSC767125), ART-558 (NSC835418), sotorasib (NSC818433), MRTX-1133 (NSC836407), SN-38 (NSC673596), topotecan (NSC609699), etoposide (NSC141540), doxorubicin (NSC123127), gemcitabine (NSC613327), 5-fluorouracil (NSC19893), paclitaxel (NSC125973), vemurafenib (NSC761431), panobinostat (NSC761190), R-306465 (JNJ-16241199; NSC773264), adavosertib (NSC754352), TP-3654 (NSC805149), carboplatin (NSC241240), KSQ-4279 (NSC840948), and staurosporine (NSC755774) were obtained from the National Cancer Institute (NCI) Developmental Therapeutics Program Chemical Repository (34). The FDA-approved anticancer drug set is available from the NCI Developmental Therapeutics Program. […] The stock solutions were prepared in dimethyl sulfoxide (DMSO, Sigma-Aldrich, St. Louis, MO, cat. D2650) at 800-fold the tested concentration and stored at -70 degrees C prior to their use. All drugs and investigational agents were tested over a range starting from a high concentration at or near the clinical Cmax and decreasing in half-log increments. If the clinical Cmax for an agent had not been determined, the highest concentration tested was 10 microM.
2.3 Cell Culture. All cells were maintained in an incubator at 37 degrees C and 5% CO2 with 95% humidity. The PDC lines were cultured according to standard operating procedures established by the NCI PDMR. All PDCs were thawed and cultured in Matrigel-coated flasks prepared with a working solution of 1X Ham's F-12 nutrient mix, without supplementation (Invitrogen, cat. 11765054), 100 U/mL penicillin-streptomycin (Invitrogen, cat. 15140122), and 2.5% Matrigel (Corning Inc., cat. 354248) for the first three passages. The 857933-349-R-J2-PDC line was cultured in 6C/Colon 1B media, which includes advanced DMEM/F-12 (Thermo Fisher Scientific, cat. 12634028), 10 mM HEPES (Thermo Fisher Scientific, cat. 15630080), 1X GlutaMAX supplement (Thermo Fisher Scientific, cat. 35050061), 0.1 mg/mL primocin (InvivoGen, cat. ant-pm-2), 10% defined fetal bovine serum, heat inactivated (HyClone Laboratories Inc., cat. SH30070.03HI), 50% L-WRN conditioned media (ATCC, cat. CRL-3276), 1.25 mM N-Acetyl-L-cysteine (Sigma-Aldrich, cat. A9165), 10 mM nicotinamide (Sigma-Aldrich, cat. N0636), 1X B-27 supplement (Thermo Fisher Scientific, cat. 17504044), 1X N-2 supplement (Thermo Fisher Scientific, cat. 17502048), 10 microM Y-27632 dihydrochloride (Tocris Bioscience, cat. 1254), and 50 ng/mL human EGF recombinant protein (Thermo Fisher Scientific, cat. PHG0311). The 485176-168-R4-J1-PDC line was cultured in Panc media, which includes all 6C/Colon 1B media components plus 100 ng/mL human FGF-10 (Thermo Fisher Scientific, cat. 100-26), 500 nM SB-431542 (Selleckchem, cat. S1067), and gastrin (Tocris, cat. 3006).
[…]
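Also: spheroids exposed to compounds for seven days before reading.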
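For viability, T/C in this document: percent viability relative to DMSO vehicle control taken as 100%.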

SMILES: COc1cc(C2c3cc4c(cc3C(OC3OC5COC(C)OC5C(O)C3O)C3COC(=O)C23)OCO4)cc(OC)c1O (stereo unspecified)
- viability, T/C (compound 0.0316 µM): 102% and 106% and 103%
- viability, T/C (compound 0.1 µM): 84% and 84.1% and 90.4%
- viability, T/C (compound 0.316 µM): 72.1% and 81.7% and 80.7%
- viability, T/C (compound 1 µM): 62.7% and 51.7% and 55.9%
- viability, T/C (compound 3.16 µM): 40.4% and 40.3% and 45%
- viability, T/C (compound 10 µM): 38% and 35.9% and 40.2%
- IC50 (curve of compound): 2.16 µM and 1.55 µM and 2 µM

SMILES: CN(C)c1ccc(Nc2c3ccc(NC(=O)CCN4CCCC4)cc3nc3cc(NC(=O)CCN4CCCC4)ccc23)cc1
- viability, T/C (compound 0.0316 µM): 96.4% [middle of 12 runs]
- viability, T/C (compound 0.1 µM): 96.8% [middle of 12 runs]
- viability, T/C (compound 1 µM): 90.4% [middle of 12 runs]
- viability, T/C (compound 3.16 µM): 96% [middle of 12 runs]
- IC50 (compound alone, run of 04/22/2024): > 10 µM

SMILES: COc1ncnc(C2CC2)c1-c1ncc2cnn(Cc3ccc(-c4nc(C(F)(F)F)cn4C(C)C)cc3)c2n1
- viability, T/C (compound 0.0316 µM): 91.6% and 95% and 118%
- viability, T/C (compound 0.1 µM): 94% and 105% and 97%
- viability, T/C (compound 0.316 µM): 92.3% and 121% and 97.5%
- viability, T/C (compound 1 µM): 79.7% and 102% and 98.1%
- viability, T/C (compound 3.16 µM): 97% and 60.6% and 99.1%
- viability, T/C (compound 10 µM): 117% and 43.5% and 105%
- IC50 (curve of compound): > 10 µM and 6.45 µM

SMILES: CC1COCCN1c1cc(C2(S(C)(=N)=O)CC2)nc(-c2ccnc3[nH]ccc23)n1 (stereo unspecified) + Cc1[nH]c2ccc(F)cc2c1-c1nc2c3cccnc3c3ncccc3c2[nH]1
- IC50 (curve of first compound, second compound 0.0316 µM): 3.01 µM
- IC50 (curve of first compound, second compound 0.1 µM): 2.35 µM
- IC50 (curve of first compound, second compound 0.316 µM): 5.49 µM
- IC50 (curve of first compound, second compound 1 µM): 3.47 µM
- IC50 (curve of first compound, second compound 3.16 µM): 2.28 µM
- IC50 (curve of first compound, second compound 10 µM): > 10 µM
- viability, T/C (second compound 0.0316 µM, first compound 0.0316 µM): 99.6%
- viability, T/C (second compound 0.0316 µM, first compound 0.1 µM): 84.9%
- viability, T/C (second compound 0.0316 µM, first compound 0.316 µM): 90.2%
- viability, T/C (second compound 0.0316 µM, first compound 1 µM): 62.4%
- viability, T/C (second compound 0.0316 µM, first compound 3.16 µM): 52%
- viability, T/C (second compound 0.0316 µM, first compound 10 µM): 41.5%
- viability, T/C (second compound 0.1 µM, first compound 0.0316 µM): 78.9%
- viability, T/C (second compound 0.1 µM, first compound 0.1 µM): 83.8%
- viability, T/C (second compound 0.1 µM, first compound 0.316 µM): 92.3%
- viability, T/C (second compound 0.1 µM, first compound 1 µM): 62.2%
- viability, T/C (second compound 0.1 µM, first compound 3.16 µM): 48.9%
- viability, T/C (second compound 0.1 µM, first compound 10 µM): 42.5%
- viability, T/C (second compound 0.316 µM, first compound 0.0316 µM): 106%
- viability, T/C (second compound 0.316 µM, first compound 0.1 µM): 84.9%
- viability, T/C (second compound 0.316 µM, first compound 0.316 µM): 88.2%
- viability, T/C (second compound 0.316 µM, first compound 1 µM): 72.6%
- viability, T/C (second compound 0.316 µM, first compound 3.16 µM): 56.2%
- viability, T/C (second compound 0.316 µM, first compound 10 µM): 41.7%
- viability, T/C (second compound 1 µM, first compound 0.0316 µM): 70.3%
- viability, T/C (second compound 1 µM, first compound 0.1 µM): 90.4%
- viability, T/C (second compound 1 µM, first compound 0.316 µM): 78.8%
- viability, T/C (second compound 1 µM, first compound 1 µM): 66.7%
- viability, T/C (second compound 1 µM, first compound 3.16 µM): 51.4%
- viability, T/C (second compound 1 µM, first compound 10 µM): 45.2%
- viability, T/C (second compound 3.16 µM, first compound 0.0316 µM): 69.4%
- viability, T/C (second compound 3.16 µM, first compound 0.1 µM): 79.4%
- viability, T/C (second compound 3.16 µM, first compound 0.316 µM): 67.5%
- viability, T/C (second compound 3.16 µM, first compound 1 µM): 57.3%
- viability, T/C (second compound 3.16 µM, first compound 3.16 µM): 48.4%
- viability, T/C (second compound 3.16 µM, first compound 10 µM): 40.2%
- viability, T/C (second compound 10 µM, first compound 0.0316 µM): 81.6%
- viability, T/C (second compound 10 µM, first compound 0.1 µM): 63.7%
- viability, T/C (second compound 10 µM, first compound 0.316 µM): 65.6%
- viability, T/C (second compound 10 µM, first compound 1 µM): 50.4%
- viability, T/C (second compound 10 µM, first compound 3.16 µM): 50.7%
- viability, T/C (second compound 10 µM, first compound 10 µM): 54.3%
